In patent publication US20250296953A1, “3,4-THIAZOLO-STEROIDS AND METHODS OF MAKING AND USING THE SAME” (Arkansas State University - Jonesboro, priority 2018, published 2025):
Read-outs that look alike come from different tables or passages of the source.

Experiments:
[1] = tested on: NCI-H522 (NSCLC); assay: NCI 60 one dose screen; type: cell-based, human; details: Non-small Cell Lung Cancer
[2] = tested on: SF-539; assay: NCI 60 one dose screen; type: cell-based, human; details: one dose; CNS Cancer; SF-539
[3] = tested on: 60 different human tumor cell lines; details: for TGI: five dose
[4] = tested on: glioblastoma (SF-295); assay: NCI 60 five dose screen
[5] = tested on: SF-295; assay: NCI 60 one dose screen; type: cell-based, human; details: one dose; CNS Cancer; SF-295

## C[C@]12CCc3sc(NCCc4ccccc4)nc3C1=CC[C@@H]1[C@@H]2CC[C@]2(C)C(=O)CC[C@@H]12 [IIa.2, (1S,2R,13R,14S,18S)-2,18-dimethyl-7-(2-phenylethylamino)-6-thia-8-azapentacyclo [11.7.0.02,10.05,9.014,18]icosa-5(9),7,10-trien-17-one]
[1]
  Growth Percent: 44.08%
[2]
  Growth Percent: 64.79%
[3]
  LC50: >l.00E−4
[3]; 786-0 (Renal Cancer)
  TGI: 9.61E−6
[3]; A498 (Renal Cancer)
  TGI: >1.00E−4
[3]; ACHN (Renal Cancer)
  TGI: 3.75E−6
[3]; BT-549 (Breast Cancer)
  TGI: >1.00E−4
[3]; CAKI-1 (Renal Cancer)
  TGI: 1.11E−5
[3]; CCRF-CEM (Leukemia)
  TGI: 4.04E−5
[3]; COLO 205 (Colon Cancer)
  TGI: 8.77E−6
[3]; DU-145 (Prostate Cancer)
  TGI: >1.00E−4
[3]; EKVX (Non-small Cell Lung Cancer)
  TGI: >1.00E−4
[3]; HCC-2998 (Colon Cancer)
  TGI: >1.00E−4
[3]; HCT-15 (Colon Cancer)
  TGI: 4.49E−6
[3]; HCT-116 (Colon Cancer)
  TGI: 1.23E−5
[3]; HL-60(TB) (Leukemia)
  TGI: 9.10E−6
[3]; HOP-62 (Non-small Cell Lung Cancer)
  TGI: >1.00E−4
[3]; HOP-92 (Non-small Cell Lung Cancer)
  TGI: 9.10E−6
[3]; HS 578T (Breast Cancer)
  TGI: >1.00E−4
[3]; HT29 (Colon Cancer)
  TGI: 8.11E−6
[3]; IGROV1 (Ovarian Cancer)
  TGI: 6.18E−6
[3]; K-562 (Leukemia)
  TGI: >1.00E−4
[3]; KM12 (Colon Cancer)
  TGI: >1.00E−4
[3]; LOX IMVI (Melanoma)
  TGI: 3.17E−6
[3]; M14 (Melanoma)
  TGI: >1.00E−4
[3]; MALME-3M (Melanoma)
  TGI: 6.82E−6
[3]; MCF7 (Breast Cancer)
  TGI: >1.00E−4
[3]; MDA-MB-231/ATCC (Breast Cancer)
  TGI: 2.14E−5
[3]; MDA-MB-435 (Melanoma)
  TGI: >1.00E−4
[3]; MDA-MB-468 (Breast Cancer)
  TGI: 1.03E−5
[3]; MOLT-4 (Leukemia)
  TGI: >1.00E−4
[3]; NCI-H23 (Non-small Cell Lung Cancer)
  TGI: >1.00E−4
[3]; NCI-H226 (Non-small Cell Lung Cancer)
  TGI: 6.57E−6
[3]; NCI-H322M (Non-small Cell Lung Cancer)
  TGI: >1.00E−4
[3]; NCI-H460 (Non-small Cell Lung Cancer)
  TGI: >1.00E−4
[3]; NCI-H522 (Non-small Cell Lung Cancer)
  TGI: 3.64E−6
[3]; NCI/ADR-RES (Ovarian Cancer)
  TGI: 7.52E−6
[3]; OVCAR-3 (Ovarian Cancer)
  TGI: 4.83E−6
[3]; OVCAR-4 (Ovarian Cancer)
  TGI: >1.00E−4
[3]; OVCAR-5 (Ovarian Cancer)
  TGI: 6.59E−5
[3]; OVCAR-8 (Ovarian Cancer)
  TGI: >1.00E−4
[3]; PC-3 (Prostate Cancer)
  TGI: >1.00E−4
[3]; RXF 393 (Renal Cancer)
  TGI: 4.49E−6
[3]; SF-268 (CNS Cancer)
  TGI: >1.00E−4
[3]; SK-MEL-2 (Melanoma)
  TGI: >1.00E−4
[3]; SK-MEL-5 (Melanoma)
  TGI: 5.27E−5
[3]; SK-MEL-28 (Melanoma)
  TGI: 1.89E−5
[3]; SK-OV-3 (Ovarian Cancer)
  TGI: >1.00E−4
[3]; SN12C (Renal Cancer)
  TGI: >1.00E−4
[3]; SNB-19 (CNS Cancer)
  TGI: >1.00E−4
[3]; SW-620 (Colon Cancer)
  TGI: 5.28E−6
[3]; T-47D (Breast Cancer)
  TGI: 2.52E−5
[3]; TK-10 (Renal Cancer)
  TGI: >1.00E−4
[3]; U251 (CNS Cancer)
  TGI: >1.00E−4
[3]; UACC-62 (Melanoma)
  TGI: 1.06E−5
[3]; UACC-257 (Melanoma)
  TGI: 7.98E−5
[3]; UO-31 (Renal Cancer)
  TGI: 2.51E−5
[4]; Homo sapiens, SF-295
  GI50: 18.9 µM
[4]; Homo sapiens, SF-295, read-out: LC50
  CC50: > 100 µM
[4]; SF-295 (CNS Cancer), five dose
  TGI: >1.00E−4
[5]
  Growth Percent: 68.44%
